Laboratory results from paper PMC10743905, “Design, Synthesis, and In Vitro and In Vivo Bioactivity Studies of Hydrazide–Hydrazones of 2,4-Dihydroxybenzoic Acid” (International Journal of Molecular Sciences, 2023).
≈ marks a conversion by molar mass, not a printed value.

Test system: Bacillus subtilis ATCC 6633
Experiment: Broth microdilution MIC/MBC
Type: cell-based
Conditions: ATCC6633, read-out: MIC
Source text: Detailed procedures are presented in the Supplementary Materials. […]
(§1) In vitro antimicrobial activity assays - Methodology
(§2) The examined compounds 1 - 24 were screened in vitro for antibacterial and antifungal activities using the broth microdilution method according to procedure reported earlier by our research group and European Committee on Antimicrobial Susceptibility Testing (EUCAST) and Clinical and Laboratory Standards Institute (CLSI) guidelines against a panel of reference and clinical or saprophytic strains of microorganisms, in-cluding Gram-positive bacteria, Staphylococcus aureus ATCC 43300 (Methicillin Resistant S. aureus – MRSA), Staphylococcus aureus ATCC 29213 (Methicillin Susceptible S. aureus – MSSA), Staphylococcus epidermidis ATCC 12228, Enterococcus faecalis ATCC 29212, Micro-coccus luteus ATCC 10240, Bacillus subtilis ATCC 6633 and Bacillus cereus ATCC 10876), Gram-negative bacteria (Bordetella bronchiseptica ATCC 4617, Escherichia coli ATCC 25922, Klebsiella pneumoniae ATCC 13883, Proteus mirabilis ATCC 12453, Salmonella typhimurium ATCC 14028 and Pseudomonas aeruginosa ATCC 9027) and fungi belonging to yeasts (Can-dida albicans ATCC 10231, Candida albicans ATCC 2091, Candida parapsilosis ATCC 22019, Candida glabrata ATCC 90030 and Candida krusei ATCC 14243). The microorganisms be-longing to ATCC came from American Type Culture Collection, routinely used for the evaluation of antimicrobials. All the used microbial cultures were first subcultured on nu-trient agar or Sabouraud agar at 35°C for 18-24 h or 30°C for 24-48 h for bacteria and fungi, […]
(§3) The surface of Mueller-Hinton agar (for bacteria) and RPMI 1640 with MOPS (for fungi) were inoculated with the suspensions of bacterial or fungal species. Microbial suspensions were prepared in sterile saline with an optical density of McFarland standard scale 0.5.
(§4) Samples containing examined compounds were dissolved in dimethyl sulfoxide (DMSO).
(§5) Furthermore, bacterial and fungal suspensions were put onto Petri dishes with solid me-dia containing 2 mg/mL of the tested compounds followed incubation at 37°C for 24h and 30°C for 48h for bacteria and fungi, respectively. The inhibition of microbial growth was judged by comparison with a control culture prepared without any sample tested. Ciprof-loxacin, vancomycin, nitrofurantoin, cefuroxime, ampicillin or nystatin (Sigma) were used as a reference antibacterial or antifungal compounds, respectively.
(§6) Subsequently, the MIC (Minimal Inhibitory Concentration) of the compounds was ex-amined by the microdilution broth method, using their two-fold dilutions in Mueller- […]
(§7) Hinton broth or (for bacteria) and RPMI 1640 broth with MOPS (for fungi) prepared in 96-well polystyrene plates. Final concentrations of the compounds ranged from 1000 to 0.488 µg/ml. Microbial suspensions were prepared in 0.85% NaCl with an optical density of 0.5 McFarland standard. Next each bacterial or fungal suspension was added per each well containing broth and various concentrations of the examined compounds. After incuba-

SMILES	MIC [µg/mL]
CCCCOc1ccc(/C=N/NC(=O)c2ccc(O)cc2O)cc1 [Compound 7, N-[(4-butoxyphenyl)methylidene]-2,4-dihydroxybenzohydrazide]	> 1000

Test system: Escherichia coli ATCC 25922
Experiment: Broth microdilution MIC/MBC
Type: cell-based
Conditions: ATCC25922
Source text: as §1, §2, §3, §4, §5, §6, §7

SMILES	MIC [µg/mL]
CCCCOc1ccc(/C=N/NC(=O)c2ccc(O)cc2O)cc1 [Compound 7, N-[(4-butoxyphenyl)methylidene]-2,4-dihydroxybenzohydrazide]	> 1000

Test system: Enterococcus faecalis ATCC 29212
Experiment: Broth microdilution MIC/MBC
Type: cell-based
Conditions: ATCC29212, read-out: MIC
Source text: as §1, §2, §3, §4, §5, §6, §7

SMILES	MIC [µg/mL]
CCCCOc1ccc(/C=N/NC(=O)c2ccc(O)cc2O)cc1 [Compound 7, N-[(4-butoxyphenyl)methylidene]-2,4-dihydroxybenzohydrazide]	> 1000

Test system: Bacillus cereus ATCC 10876
Experiment: Broth microdilution MIC/MBC
Type: cell-based
Conditions: not given
Source text: as §1, §2, §3, §4, §5, §6, §7

SMILES	MBC/MIC
CCCCOc1ccc(/C=N/NC(=O)c2ccc(O)cc2O)cc1 [Compound 7, N-[(4-butoxyphenyl)methylidene]-2,4-dihydroxybenzohydrazide]	> 1

Same assay, conditions: ATCC10876

SMILES	MBC [µg/mL]
CCCCOc1ccc(/C=N/NC(=O)c2ccc(O)cc2O)cc1 [Compound 7, N-[(4-butoxyphenyl)methylidene]-2,4-dihydroxybenzohydrazide]	> 1000

Same assay, conditions: ATCC10876, read-out: MIC

SMILES	MIC [µg/mL]
CCCCOc1ccc(/C=N/NC(=O)c2ccc(O)cc2O)cc1 [Compound 7, N-[(4-butoxyphenyl)methylidene]-2,4-dihydroxybenzohydrazide]	1000 (≈ 3.05 mM)

Test system: Bordetella bronchiseptica ATCC 4617
Experiment: Broth microdilution MIC/MBC
Type: cell-based
Conditions: ATCC4617
Source text: as §1, §2, §3, §4, §5, §6, §7

SMILES	MIC [µg/mL]
CCCCOc1ccc(/C=N/NC(=O)c2ccc(O)cc2O)cc1 [Compound 7, N-[(4-butoxyphenyl)methylidene]-2,4-dihydroxybenzohydrazide]	> 1000

Test system: Klebsiella pneumoniae ATCC 13883
Experiment: Broth microdilution MIC/MBC
Type: cell-based
Conditions: ATCC13883
Source text: as §1, §2, §3, §4, §5, §6, §7

SMILES	MIC [µg/mL]
CCCCOc1ccc(/C=N/NC(=O)c2ccc(O)cc2O)cc1 [Compound 7, N-[(4-butoxyphenyl)methylidene]-2,4-dihydroxybenzohydrazide]	> 1000

Test system: Candida albicans ATCC 2091
Experiment: Broth microdilution MIC/MFC
Type: cell-based
Conditions: not given
Source text: as §1, §2, §3, §4, §5, §6, §7

SMILES	MFC/MIC
CCCCOc1ccc(/C=N/NC(=O)c2ccc(O)cc2O)cc1 [Compound 7, N-[(4-butoxyphenyl)methylidene]-2,4-dihydroxybenzohydrazide]	> 2

Same assay, conditions: ATCC2091, read-out: MFC

SMILES	MFC [µg/mL]
CCCCOc1ccc(/C=N/NC(=O)c2ccc(O)cc2O)cc1 [Compound 7, N-[(4-butoxyphenyl)methylidene]-2,4-dihydroxybenzohydrazide]	> 1000

Same assay, conditions: ATCC2091, read-out: MIC

SMILES	MIC [µg/mL]
CCCCOc1ccc(/C=N/NC(=O)c2ccc(O)cc2O)cc1 [Compound 7, N-[(4-butoxyphenyl)methylidene]-2,4-dihydroxybenzohydrazide]	500 (≈ 1.52 mM)

Test system: Candida parapsilosis ATCC 22019
Experiment: Broth microdilution MIC/MFC
Type: cell-based
Conditions: Lodderomyces parapsilosis, ATCC22019, read-out: MIC
Source text: as §1, §2, §3, §4, §5, §6, §7

SMILES	MIC [µg/mL]
CCCCOc1ccc(/C=N/NC(=O)c2ccc(O)cc2O)cc1 [Compound 7, N-[(4-butoxyphenyl)methylidene]-2,4-dihydroxybenzohydrazide]	> 1000

Test system: Candida krusei ATCC 14243
Experiment: Broth microdilution MIC/MFC
Type: cell-based
Conditions: Pichia kudriavzevii, ATCC14243, read-out: MIC
Source text: as §1, §2, §3, §4, §5, §6, §7

SMILES	MIC [µg/mL]
CCCCOc1ccc(/C=N/NC(=O)c2ccc(O)cc2O)cc1 [Compound 7, N-[(4-butoxyphenyl)methylidene]-2,4-dihydroxybenzohydrazide]	> 1000

Test system: Candida glabrata ATCC 90030
Experiment: Broth microdilution MIC/MFC
Type: cell-based
Conditions: Nakaseomyces glabratus, ATCC90030, read-out: MIC
Source text: as §1, §2, §3, §4, §5, §6, §7

SMILES	MIC [µg/mL]
CCCCOc1ccc(/C=N/NC(=O)c2ccc(O)cc2O)cc1 [Compound 7, N-[(4-butoxyphenyl)methylidene]-2,4-dihydroxybenzohydrazide]	> 1000

Test system: Candida albicans ATCC 10231
Experiment: Broth microdilution MIC/MFC
Type: cell-based
Conditions: not given
Source text: as §1, §2, §3, §4, §5, §6, §7

SMILES	MFC/MIC
CCCCOc1ccc(/C=N/NC(=O)c2ccc(O)cc2O)cc1 [Compound 7, N-[(4-butoxyphenyl)methylidene]-2,4-dihydroxybenzohydrazide]	> 1

Same assay, conditions: ATCC10231, read-out: MFC

SMILES	MFC [µg/mL]
CCCCOc1ccc(/C=N/NC(=O)c2ccc(O)cc2O)cc1 [Compound 7, N-[(4-butoxyphenyl)methylidene]-2,4-dihydroxybenzohydrazide]	> 1000

Same assay, conditions: ATCC10231, read-out: MIC

SMILES	MIC [µg/mL]
CCCCOc1ccc(/C=N/NC(=O)c2ccc(O)cc2O)cc1 [Compound 7, N-[(4-butoxyphenyl)methylidene]-2,4-dihydroxybenzohydrazide]	1000 (≈ 3.05 mM)

Test system: not given
Experiment: not given
Conditions: not given

SMILES	melting point [°C]
CCCCOc1ccc(/C=N/NC(=O)c2ccc(O)cc2O)cc1 [Compound 7, N-[(4-butoxyphenyl)methylidene]-2,4-dihydroxybenzohydrazide]	246

Test system: Staphylococcus aureus ATCC 29213
Experiment: Broth microdilution MIC/MBC
Type: cell-based
Conditions: not given
Source text: as §1
as §2, with “antimicrobials.” for “antimicrobials. All the used microbial cultures were first subcultured on nu-trient agar or Sabouraud agar at 35°C for 18-24 h or 30°C for 24-48 h for bacteria and fungi,”
(§8) Samples containing examined compounds were dissolved in dimethyl sulfoxide (DMSO). […]
as §6, §7

SMILES	MBC/MIC
CCCCOc1ccc(/C=N/NC(=O)c2ccc(O)cc2O)cc1 [Compound 7, N-[(4-butoxyphenyl)methylidene]-2,4-dihydroxybenzohydrazide]	> 1

Same assay, conditions: ATCC29213

SMILES	MBC [µg/mL]	MIC [µg/mL]
CCCCOc1ccc(/C=N/NC(=O)c2ccc(O)cc2O)cc1 [Compound 7, N-[(4-butoxyphenyl)methylidene]-2,4-dihydroxybenzohydrazide]	> 1000	1000 (≈ 3.05 mM)

Test system: Micrococcus luteus ATCC 10240
Experiment: Broth microdilution MIC/MBC
Type: cell-based
Conditions: not given
Source text: as §1
as §2, with “antimicrobials.” for “antimicrobials. All the used microbial cultures were first subcultured on nu-trient agar or Sabouraud agar at 35°C for 18-24 h or 30°C for 24-48 h for bacteria and fungi,”
as §8, §6, §7

SMILES	MBC/MIC
CCCCOc1ccc(/C=N/NC(=O)c2ccc(O)cc2O)cc1 [Compound 7, N-[(4-butoxyphenyl)methylidene]-2,4-dihydroxybenzohydrazide]	> 1

Same assay, conditions: ATCC10240

SMILES	MBC [µg/mL]
CCCCOc1ccc(/C=N/NC(=O)c2ccc(O)cc2O)cc1 [Compound 7, N-[(4-butoxyphenyl)methylidene]-2,4-dihydroxybenzohydrazide]	> 1000

Same assay, conditions: ATCC10240, read-out: MIC

SMILES	MIC [µg/mL]
CCCCOc1ccc(/C=N/NC(=O)c2ccc(O)cc2O)cc1 [Compound 7, N-[(4-butoxyphenyl)methylidene]-2,4-dihydroxybenzohydrazide]	1000 (≈ 3.05 mM)

Test system: Staphylococcus epidermidis ATCC 12228
Experiment: Broth microdilution MIC/MBC
Type: cell-based
Conditions: not given
Source text: as §1
as §2, with “antimicrobials.” for “antimicrobials. All the used microbial cultures were first subcultured on nu-trient agar or Sabouraud agar at 35°C for 18-24 h or 30°C for 24-48 h for bacteria and fungi,”
as §8, §6, §7

SMILES	MBC/MIC
CCCCOc1ccc(/C=N/NC(=O)c2ccc(O)cc2O)cc1 [Compound 7, N-[(4-butoxyphenyl)methylidene]-2,4-dihydroxybenzohydrazide]	2

Same assay, conditions: ATCC12228

SMILES	MBC [µg/mL]
CCCCOc1ccc(/C=N/NC(=O)c2ccc(O)cc2O)cc1 [Compound 7, N-[(4-butoxyphenyl)methylidene]-2,4-dihydroxybenzohydrazide]	1000 (≈ 3.05 mM)

Same assay, conditions: ATCC12228, read-out: MIC

SMILES	MIC [µg/mL]
CCCCOc1ccc(/C=N/NC(=O)c2ccc(O)cc2O)cc1 [Compound 7, N-[(4-butoxyphenyl)methylidene]-2,4-dihydroxybenzohydrazide]	500 (≈ 1.52 mM)

Test system: Proteus mirabilis ATCC 12453
Experiment: Broth microdilution MIC/MBC
Type: cell-based
Conditions: ATCC12453
Source text: as §1
as §2, with “antimicrobials.” for “antimicrobials. All the used microbial cultures were first subcultured on nu-trient agar or Sabouraud agar at 35°C for 18-24 h or 30°C for 24-48 h for bacteria and fungi,”
as §8, §6, §7

SMILES	MIC [µg/mL]
CCCCOc1ccc(/C=N/NC(=O)c2ccc(O)cc2O)cc1 [Compound 7, N-[(4-butoxyphenyl)methylidene]-2,4-dihydroxybenzohydrazide]	> 1000

Test system: Staphylococcus aureus ATCC 43300
Experiment: Broth microdilution MIC/MBC
Type: cell-based
Conditions: Staphylococcus aureus ATCC 43300 (MRSA)
Source text: as §1
as §2, with “antimicrobials.” for “antimicrobials. All the used microbial cultures were first subcultured on nu-trient agar or Sabouraud agar at 35°C for 18-24 h or 30°C for 24-48 h for bacteria and fungi,”
as §8, §6, §7

SMILES	MIC [µg/mL]
CCCCOc1ccc(/C=N/NC(=O)c2ccc(O)cc2O)cc1 [Compound 7, N-[(4-butoxyphenyl)methylidene]-2,4-dihydroxybenzohydrazide]	> 1000

Test system: Salmonella typhimurium ATCC 14028
Experiment: Broth microdilution MIC/MBC
Type: cell-based
Conditions: Salmonella enterica
Source text: as §1
as §2, with “antimicrobials.” for “antimicrobials. All the used microbial cultures were first subcultured on nu-trient agar or Sabouraud agar at 35°C for 18-24 h or 30°C for 24-48 h for bacteria and fungi,”
as §8, §6, §7

SMILES	MIC [µg/mL]
CCCCOc1ccc(/C=N/NC(=O)c2ccc(O)cc2O)cc1 [Compound 7, N-[(4-butoxyphenyl)methylidene]-2,4-dihydroxybenzohydrazide]	> 1000

Test system: Pseudomonas aeruginosa ATCC 9027
Experiment: Broth microdilution MIC/MBC
Type: cell-based
Conditions: ATCC9027
Source text: as §1
as §2, with “antimicrobials.” for “antimicrobials. All the used microbial cultures were first subcultured on nu-trient agar or Sabouraud agar at 35°C for 18-24 h or 30°C for 24-48 h for bacteria and fungi,”
as §8, §6, §7

SMILES	MIC [µg/mL]
CCCCOc1ccc(/C=N/NC(=O)c2ccc(O)cc2O)cc1 [Compound 7, N-[(4-butoxyphenyl)methylidene]-2,4-dihydroxybenzohydrazide]	> 1000
